This note sets out measurements from patent publication US20090312310A1 (priority 2006, published 2009).

For assay [1], the system named is human lung cancer-derived cell line NCI-H460 having wild-type p53. The experiment in a line: Cell growth inhibition assay (MTT), NCI-H460. The following applies: 72 hours. It is filed as cell-based. As for the experimental part:
(§1) An anti-cell test was conducted using two cells (human lung cancer-derived cell line NCI-H460 having wild-type p53 and human colon cancer-derived cell line DLD-1 having mutant p53).
(§2) Cells of the respective cell lines were suspended in a medium (RPMI1640 medium containing 10% fetal bovine serum) and these suspensions were inoculated in amounts of 500 cells/150 μL/well and 1000 cells/150 μL/well, respectively, to a 96-well multiwell plate. A test compound was dissolved in DMSO and this solution was diluted with medium to prepare a sample solution (DMSO concentration: 1% or lower). On the next day of inoculation, medium containing DMSO nonsupplemented with the test compound (hereinafter, referred to as a DMSO dilution, DMSO concentration: 1% or lower) or the sample solution was added in an amount of 50 μL/well. MTT assay was conducted immediately after addition of the sample solution or the DMSO dilution to the cells and after culture of the cells (after addition of the sample solution or the DMSO dilution) at 37° C. for 72 hours in a 5% CO2 atmosphere. The MTT assay was conducted as shown below.
(§3) A 5 mg/mL MTT (3-(4,5-dimethylthiazol-2-yl)-2,5-diphenyltetrazolium bromide, Sigma-Aldrich Co., M-2128) solution was prepared using phosphate buffer solutions (Dulbecco's Phosphate-buffered Salines). This MTT solution was added in an amount of 20 μL/well. Then, the plate was cultured at 37° C. for 4 hours in a 5% CO2 atmosphere. The plate was centrifuged at 1200 rpm for 5 minutes and then the culture supernatant was removed by aspiration using a dispenser. DMSO was added in an amount of 150 μL/well to dissolve generated formazan. […] The absorbance of each well was measured under conditions of OD 540 nm and reference 660 nm using a plate reader (SpectraMax PLUS384, Molecular Devices, CA, USA).
(§4) The OD value measured immediately after addition of the sample solution was defined as S. The OD value measured 72 hours after addition of the sample solution was defined as T. The OD value measured 72 hours after addition of the DMSO dilution was defined as C. […]

Assay [2] has as its target T1, Mdm2/p53 binding (Homo sapiens, UniProt Q00987, L33E).
T1 construct: having Mdm2 amino acids at positions 25 to 108
The experiment in a line: Mdm2/p53 binding assay (HTRF, His-p53 / GST-Mdm2). The following applies: His-p53 (aa 1-132) and GST-Mdm2 (aa 25-108, L33E), 6.25 nM each; 25° C., 1 hour. The method, then:
Next, a test compound was diluted with protein buffer solution containing 10% DMSO, and this test compound dilution was added in an amount of 4 μL/well to the plate.
These dilutions were added in an amount of 8 μL/well (total reaction solution volume: 20 μl/well). Then, the plate was left at 25° C. for 1 hour.
C (correction factor)=(A−BI)/D
The R value calculated from the well supplemented with His-p53, GST-Mdm2, the test compound, and each antibody was defined as R (sample). The R value calculated from the well supplemented with His-p53, GST-Mdm2, and each antibody but without the test compound was defined as R (control). The R value calculated from the well supplemented with GST-Mdm2, the test compound, and each antibody but without His-p53 was defined as R (background). T/C was calculated from the formula shown below. An IC50 value for Mdm2/p53 binding was calculated by sigmoid fitting using Prism (GraphPad Software).
T/C=(R (sample)−R (background))/(R (control)−R (background))

The test system of assay [3] is human colon cancer-derived cell line DLD-1 having mutant p53. The experiment in a line: Cell growth inhibition assay (MTT), DLD-1. The format is cell-based. The following applies: DLD-1 (mutant p53), 72 hours. As for the experimental part:
as §1, §2, §3, §4

T1 sequence (Q00987 25-108 L33E, species assumed): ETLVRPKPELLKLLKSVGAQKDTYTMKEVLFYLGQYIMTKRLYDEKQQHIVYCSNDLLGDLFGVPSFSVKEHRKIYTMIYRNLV

Regarding `CC(=O)N(C)[C@@H](C)CN(C)C(=O)[C@@H]1CCCN1C(=O)C1=C(C(C)C)N2C(=N[C@@](C)(c3ccc(Cl)cc3)[C@H]2c2ccc(Cl)cc2)S1` [Example 73, N-{(2S)-2-[Acetyl(methyl)amino]propyl}-1-{[(5R,6S)-5,6-bis(4-chlorophenyl)-3-isopropyl-6-methyl-5,6-dihydroimidazo[2,1-b][1,3]thiazol-2-yl]carbonyl}-N-methyl-L-prolinamide], the GI50 in assay [1] (Homo sapiens) is 1750 nM; in assay [3] (Homo sapiens) it was greater than 50000 nM. For the same compound, in assay [2], the 50% inhibitory concentration (IC50) is 18 nM.

Regarding `CC(C)C1=C(C(=O)N2[C@@H](C)CC[C@H]2C(=O)N(C)C)SC2=N[C@@](C)(c3ccc(Cl)cc3)[C@@H](c3ccc(Cl)cc3)N21` [Example 112, (5S)-1-{[(5R,6S)-5,6-Bis(4-chlorophenyl)-3-isopropyl-6-methyl-5,6-dihydroimidazo[2,1-b][1,3]thiazol-2-yl]carbonyl}-N,N,5-trimethyl-L-prolinamide], the GI50 in assay [1] (Homo sapiens) amounted to 1380 nM; in assay [3] (Homo sapiens), 40700 nM.

As for `CC(C)C1=C(C(=O)N2CCC[C@H]2C(=O)N2CCOCC2)SC2=N[C@@](C)(c3ccc(Cl)nc3)[C@@H](c3ccc(Cl)cc3)N21` (single isomer, unassigned; isomer b) [Example 97 (Isomer B)], the GI50 in assay [1] was 2810 nM; in assay [3], greater than 50000 nM. For the same compound, the IC50 in assay [2] came to 10 nM.
